Assay results reported in US20220177477A1 (Central China Normal University, priority 2019, published 2022).
Blank lines part the entries; values can stand above or below the compound they belong to.

Key:
TRKA = molecular target: T1, TRKA (Homo sapiens, UniProt P04629); test: In vitro biochemical HTRF KinEASE kinase inhibition, TRKA; details: wild-type kinase, final ATP 3.727 μmol/L; read-out: TRKA IC50
T1 construct: purchased Carna Biosciences 08-186

TRKB = molecular target: T2, TRKB (Homo sapiens, UniProt Q16620); test: In vitro biochemical HTRF KinEASE kinase inhibition, TRKB; details: wild-type kinase, final ATP 2.56 μmol/L
T2 construct: purchased Carna Biosciences 08-187
Procedure: The material and the method are as follows: wild-type kinases such as TRKA, TRKB and TRKC, and mutant kinases such as TRKA-G595R, TRKA-G667C, TRKA-F589L, TRKC-G623R and TRKC-G696A, and are derived from Carna Biosciences 08-186, 08-187, 08-197; HTRF KinEASE TKkit (Cisbio 62TKO PEC); 384 well plates (Greiner corporation); ATP (Life technologies PV 3227), MgCl2 (sigma); PHERAstar FS Multifunctional microplate reader (BMG Co.); low speed centrifuge (StaiteXiangyi corporation); incubator (Binder company).
Preparing a compound working solution: the dispensed compounds were removed from the freezer prior to testing and diluted to 100× concentration with pure DMSO; then the compound was diluted to the desired concentration of 4× with deionized water;
Preparation of 1.33× enzyme buffer (enzyme buffer): 5× enzyme buffer (from HTRF kit) was diluted to 1.33× with deionized water and the corresponding ingredients were added at a final concentration of 1.33×: 1.33 mmol/L Dithiothreitol (DTT), 1.33 mmol/L MnCl2, 6.65 mmol/L MgCl2 and 39.9 nmol/L SEB;
Preparation of a kinase working solution: TRKA, TRKB and TRKC were diluted with 1.33× enzyme buffer to the required concentrations of 2× of 0.404 ng/μL, 0.304 ng/μL and 0.236 ng/μL, respectively;
Preparing a substrate working solution: a mixture of TK Substrate Blr diluted to the desired final concentration of 4× (from HTRF kit) and ATP (10 mM) with 1.33× enzyme buffer; the final ATP concentrations for TRKA, TRKB, and TRKC were: 3.727 μmol/L, 2.56 μmol/L and 2.526 μmol/L. The TK Substrate-biotin (from HTRF KinEASE TKkit) final concentrations were all: 0.2 μmol/L.
Preparing a detection working solution: 16.67 μmol/L of Streptavidin-XL665 (Streptavidin-XL 665) were diluted to the desired final concentration of 4× with HTRF test buffer and then mixed with an equal volume of Antibody-europium Cryptate (Antibody-Cryptate) (both from HTRF kits).
An enzyme reaction step: add 4 μL of kinase working solution to each well of a low volume 384 microwell plate along with 4 μL of 1.33× enzyme buffer as a Negative control (Negative); add 2 μl of compound working solution to the wells, while adding 2 μl of […] aqueous solution as a zero compound concentration control (i.e., Positive control, Positive); incubating at 25° C. for 5 min; add 2 μL of substrate working solution to the wells to start the enzymatic reaction, shake the reaction for 30 min at 37° C.
HTRF reagent detection step: adding […] to the hole to terminate the reaction; reacting for 1 h at 25° C.;
Reading of HTRF signal: the PHERAstar FS reading is adopted to detect signals, and the corresponding setting of the instrument is as follows:
For the raw data read out per well, the ratio=665 nm/620 nm;
Calculation of inhibition rate:
Calculation of IC50 values: with the logarithm of the compound concentration as abscissa and the inhibition as ordinate, a non-linear curve was fitted in GraphPad Prism 5: log (inhibitor) vs. response—Variable slope, and calculating the concentration of the compound to be detected, namely IC50, when the enzyme activity inhibition rate is 50%.

TRKC = molecular target: T3, TRKC (Homo sapiens, UniProt Q16288); test: In vitro biochemical HTRF KinEASE kinase inhibition, TRKC; details: wild-type kinase, final ATP 2.526 μmol/L
T3 construct: purchased Carna Biosciences 08-197

TRKA-G595R = molecular target: T4, TRKA-G595R (Homo sapiens, UniProt P04629, G595R); test: TRK kinase mutant inhibition (HTRF), TRKA-G595R; format: biochemical
T4 construct: purchased Carna Biosciences

TRKA-G667C = molecular target: T5, TRKA-G667C (Homo sapiens, UniProt P04629, G667C); test: TRK kinase mutant inhibition (HTRF), TRKA-G667C; format: biochemical
T5 construct: purchased Carna Biosciences

TRKA-F589L = molecular target: T6, TRKA-F589L (Homo sapiens, UniProt P04629, F589L); test: TRK kinase mutant inhibition (HTRF), TRKA-F589L; format: biochemical
T6 construct: purchased Carna Biosciences

TRKC-G623R = molecular target: T7, TRKC-G623R (Homo sapiens, UniProt Q16288, G623R); test: TRK kinase mutant inhibition (HTRF), TRKC-G623R; format: biochemical
T7 construct: purchased Carna Biosciences

TRKC-G696A = molecular target: T8, TRKC-G696A (Homo sapiens, UniProt Q16288, G696A); test: TRK kinase mutant inhibition (HTRF), TRKC-G696A; format: biochemical
T8 construct: purchased Carna Biosciences

Human NSCLC H2228 [1] = test: Antitumor activity on nude mouse xenograft tumor model (Test Example 4); format: in vivo, nude mice (BALB/c)
Procedure: The efficacy of the compounds of the invention was evaluated by a standard murine model of the transplanted tumor. Human NSCLC H2228 was cultured, collected, and inoculated subcutaneously to 5-6 weeks old female nude mice (BALB/c, Shanghai Ling Chang Biotech, Ltd.). When the tumor volume reached 100-150 mm^3, the animals were randomly divided into a solvent control group ([…] in water) and a compound group (6 animals per group). Animals were subsequently gavaged with the compounds of the examples (corresponding dose, dissolved in […] in water), starting anywhere from 0 to 7 days after tumor cell inoculation, and were performed twice daily in the experiment.
The experimental index is to examine the influence of the compound of the embodiment on the growth of the tumor, and the specific index is […].
(§1) Tumor diameters were measured twice weekly with a vernier caliper and tumor volume (V) was calculated as:
(§2) V=½×a×b^2 wherein a and b represent length and width, respectively.
(§3) T/C(%)=(T−T0)/(C−C0)×100 where T, C is the tumor volume at the end of the experiment; T0, C0 are tumor volumes at the beginning of the experiment.
(§4) Partial tumor regression (PR) is defined if the tumor shrinks from the initial volume, i.e., T<T0 or C<C0; if the tumor completely disappears, it is defined as complete tumor regression (CR).
(§5) Comparison between the two groups of tumor volumes was tested using a two-tailed Student's t test, with P<0.05 defined as statistically significant differences.
BID below refers to twice daily dosing.

[2] = Drug metabolism study in rats, oral administration; details: rat
[3] = Drug metabolism study in rats, intravenous administration; details: rat
Human NSCLC H2228 [4] = test: Antitumor activity on nude mouse xenograft tumor model (Test Example 5); format: in vivo, nude mice (BALB/c); details: for Partially regression: D14, tumors regressed/animals per group
Procedure: The efficacy of the compounds of the invention was assessed by a standard murine model of transplanted tumors. Human NSCLC H2228 was cultured, collected, and inoculated subcutaneously to 5-6 weeks old female nude mice (BALB/c, Shanghai Ling Chang Biotech, Ltd.). When the tumor volume reached 100-150 mm3, the animals were randomly divided into a solvent control group (70% PEG-400 in water) and a compound group (6 animals per group).
Animals were subsequently gavaged with the compounds of the examples (corresponding doses, dissolved in 70% PEG-400 in water), starting anywhere from 0 to 13 days after tumor cell inoculation, and were performed once or twice daily in the experiment.
The experimental index is to examine the influence of the compound of the embodiment on the growth of the tumor, and the specific index is T/C % or tumor inhibition rate TGI (%).
as §1, §2, §3
Tumor inhibition rate (TGI) (%) 100−T/C (%).
When tumor regression occurred, Tumor inhibition rate (TGI) (%) 100−(T−T0)/T0×100
as §4, §5
BID below indicates twice daily dosing and QD indicates once daily dosing.

[5] = 50 mg/kg BID D0-7, D14, tumors regressed/animals per group

T1 sequence (P04629 33-796): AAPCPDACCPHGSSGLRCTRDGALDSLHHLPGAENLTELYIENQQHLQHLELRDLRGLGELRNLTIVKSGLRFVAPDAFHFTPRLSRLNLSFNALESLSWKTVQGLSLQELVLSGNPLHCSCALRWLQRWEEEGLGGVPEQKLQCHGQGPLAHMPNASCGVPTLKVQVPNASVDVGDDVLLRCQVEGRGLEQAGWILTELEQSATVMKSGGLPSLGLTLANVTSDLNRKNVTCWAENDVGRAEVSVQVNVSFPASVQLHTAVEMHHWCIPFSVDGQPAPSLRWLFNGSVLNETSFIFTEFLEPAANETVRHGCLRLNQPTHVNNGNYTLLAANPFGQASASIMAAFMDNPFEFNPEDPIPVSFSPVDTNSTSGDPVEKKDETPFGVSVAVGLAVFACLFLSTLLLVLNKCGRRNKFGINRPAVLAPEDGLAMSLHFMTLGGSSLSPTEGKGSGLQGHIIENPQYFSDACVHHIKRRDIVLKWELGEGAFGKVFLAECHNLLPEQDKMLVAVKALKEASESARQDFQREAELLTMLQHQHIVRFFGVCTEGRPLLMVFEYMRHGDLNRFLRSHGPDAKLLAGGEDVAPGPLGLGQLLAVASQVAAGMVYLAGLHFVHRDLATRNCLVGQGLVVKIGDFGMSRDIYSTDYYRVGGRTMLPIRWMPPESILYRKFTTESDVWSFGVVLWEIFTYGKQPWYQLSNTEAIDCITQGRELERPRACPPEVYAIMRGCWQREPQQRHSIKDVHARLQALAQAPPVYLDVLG
T7 sequence (Q16288 32-839 G623R): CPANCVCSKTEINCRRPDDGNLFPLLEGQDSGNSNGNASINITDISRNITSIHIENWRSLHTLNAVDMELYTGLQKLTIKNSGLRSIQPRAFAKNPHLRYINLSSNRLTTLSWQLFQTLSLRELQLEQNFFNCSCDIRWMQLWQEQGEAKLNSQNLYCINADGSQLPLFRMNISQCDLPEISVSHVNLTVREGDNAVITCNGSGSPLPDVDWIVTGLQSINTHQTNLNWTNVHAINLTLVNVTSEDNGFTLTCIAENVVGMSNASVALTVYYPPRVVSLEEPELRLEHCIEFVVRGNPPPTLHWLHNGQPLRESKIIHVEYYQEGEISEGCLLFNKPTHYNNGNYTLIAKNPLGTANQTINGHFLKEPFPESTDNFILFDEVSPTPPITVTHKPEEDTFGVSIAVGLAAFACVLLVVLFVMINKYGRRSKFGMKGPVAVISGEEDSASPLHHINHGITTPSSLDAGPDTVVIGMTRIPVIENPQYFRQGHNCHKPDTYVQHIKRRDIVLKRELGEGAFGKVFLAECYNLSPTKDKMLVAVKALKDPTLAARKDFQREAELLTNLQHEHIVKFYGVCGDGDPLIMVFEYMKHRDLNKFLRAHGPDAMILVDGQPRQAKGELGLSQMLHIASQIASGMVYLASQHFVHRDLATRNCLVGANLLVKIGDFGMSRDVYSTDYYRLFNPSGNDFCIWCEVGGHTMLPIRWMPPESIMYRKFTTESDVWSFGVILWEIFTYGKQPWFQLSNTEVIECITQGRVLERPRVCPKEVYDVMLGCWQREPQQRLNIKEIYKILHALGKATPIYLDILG
T8 sequence (Q16288 32-839 G696A): as the sequence (Q16288 32-839 G623R) above, with R592G, G665A counted along it
T2 sequence (Q16620 32-822): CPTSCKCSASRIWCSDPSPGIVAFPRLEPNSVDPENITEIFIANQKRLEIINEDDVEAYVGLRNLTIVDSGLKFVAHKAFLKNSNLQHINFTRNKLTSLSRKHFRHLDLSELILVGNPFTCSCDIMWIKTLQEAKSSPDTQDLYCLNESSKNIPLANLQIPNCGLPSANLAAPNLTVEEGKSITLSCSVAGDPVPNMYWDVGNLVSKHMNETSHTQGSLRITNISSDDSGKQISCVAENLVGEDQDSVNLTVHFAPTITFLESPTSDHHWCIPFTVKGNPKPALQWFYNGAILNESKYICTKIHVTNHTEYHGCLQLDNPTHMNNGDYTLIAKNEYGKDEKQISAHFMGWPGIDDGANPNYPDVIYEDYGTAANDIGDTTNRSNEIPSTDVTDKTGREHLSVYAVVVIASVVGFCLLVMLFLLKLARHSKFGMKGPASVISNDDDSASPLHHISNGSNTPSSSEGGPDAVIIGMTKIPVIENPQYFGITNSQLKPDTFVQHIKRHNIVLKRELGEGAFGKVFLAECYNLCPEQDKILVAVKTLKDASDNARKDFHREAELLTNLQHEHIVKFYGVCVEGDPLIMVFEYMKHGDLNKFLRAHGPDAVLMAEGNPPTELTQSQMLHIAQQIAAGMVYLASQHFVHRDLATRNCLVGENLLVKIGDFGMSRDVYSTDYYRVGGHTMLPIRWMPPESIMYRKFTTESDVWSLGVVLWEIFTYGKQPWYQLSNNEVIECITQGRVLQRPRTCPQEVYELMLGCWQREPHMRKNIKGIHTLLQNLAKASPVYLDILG
T5 sequence (P04629 33-796 G667C): as the sequence (P04629 33-796) above, with G635C counted along it
T3 sequence (Q16288 32-825 isoform Q16288-3 limits assumed): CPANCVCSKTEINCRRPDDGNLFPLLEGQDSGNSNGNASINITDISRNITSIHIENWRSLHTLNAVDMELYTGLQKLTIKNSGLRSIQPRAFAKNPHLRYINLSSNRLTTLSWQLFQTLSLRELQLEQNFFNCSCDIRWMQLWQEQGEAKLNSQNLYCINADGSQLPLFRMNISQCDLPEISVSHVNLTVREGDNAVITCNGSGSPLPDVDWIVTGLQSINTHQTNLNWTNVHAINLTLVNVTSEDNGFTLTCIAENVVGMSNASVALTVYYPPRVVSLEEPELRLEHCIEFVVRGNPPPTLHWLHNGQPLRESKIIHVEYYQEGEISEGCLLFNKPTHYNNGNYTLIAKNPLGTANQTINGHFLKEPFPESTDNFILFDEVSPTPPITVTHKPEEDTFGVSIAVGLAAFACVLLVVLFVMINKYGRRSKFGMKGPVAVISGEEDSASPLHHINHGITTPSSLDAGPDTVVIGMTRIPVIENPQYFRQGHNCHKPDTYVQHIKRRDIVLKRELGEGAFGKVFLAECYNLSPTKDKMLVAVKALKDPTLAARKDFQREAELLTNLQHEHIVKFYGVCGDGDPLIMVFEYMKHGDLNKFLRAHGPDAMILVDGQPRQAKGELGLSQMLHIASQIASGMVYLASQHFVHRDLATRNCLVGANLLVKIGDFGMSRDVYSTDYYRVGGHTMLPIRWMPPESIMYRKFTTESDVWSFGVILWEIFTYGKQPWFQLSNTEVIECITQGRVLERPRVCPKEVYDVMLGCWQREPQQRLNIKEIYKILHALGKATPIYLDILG
T6 sequence (P04629 33-796 F589L): as the sequence (P04629 33-796) above, with F557L counted along it
T4 sequence (P04629 33-796 G595R): as the sequence (P04629 33-796) above, with G563R counted along it

Structure (SMILES): C[C@@H](Nc1ccn2ncc(-c3cnn(CCO)c3)c2n1)c1cc(F)ccc1OCC(F)F [Compound 5, (R)-2-(4-(5-((1-(2-(2,2-difluoroethoxy)-5-fluorophenyl)ethyl)amino)pyrazolo [1,5-a]pyrimidin-3-yl)-1H-pyrazol-1-yl) ethanol]
- IC50 (TRKA): 3.6 nM
- IC50 (TRKB): 3.9 nM
- IC50 (TRKC): 11.1 nM
- IC50 (TRKA-G595R): 0.88 nM
- IC50 (TRKA-G667C): 0.95 nM
- IC50 (TRKA-F589L): 0.29 nM
- IC50 (TRKC-G623R): 0.61 nM
- IC50 (TRKC-G696A): 1 nM
- Partially regression (Human NSCLC H2228 [1]; [5]): 2/6
- complete regression (Human NSCLC H2228 [1]; [5]): 3/6
- Tumor growth inhibition value D14 (Human NSCLC H2228 [1]; 50 mg/kg BID gavage D0-7, dosing stopped from D8, read at D14, 50 mg/kg): 155%
- Tumor growth inhibition value D14 (Human NSCLC H2228 [1]; 50 mg/kg BID gavage D0-7, dosing stopped from D8, read at D14, listed as compound 5, 50 mg/kg): 155%
- tumor completely regressed D7 (Human NSCLC H2228 [1]; 50 mg/kg BIDx8, D7, tumors regressed/animals per group): 4/6
- tumor inhibition rate D7 (Human NSCLC H2228 [1]; 50 mg/kg BIDx8, read at D7): 182%
- bioavailability ([2]; in vivo, po, 5 mg/kg): 49.3%
- CL ([2]; oral 5 mg/kg): 158 mL/min/kg
- Cmax ([2]; oral 5 mg/kg): 217.7 ng/mL
- T1/2 ([2]; oral 5 mg/kg): 5.7 h
- Tmax ([2]; oral 5 mg/kg): 0.25 h
- Vz ([2]; oral 5 mg/kg): 79.26 L/kg
- AUC(0-t) ([2]; plasma, po, 5 mg/kg): 479 ng·h/mL
- MRT last ([2]; plasma, po, 5 mg/kg): 3.6 h
- Vd ([3]; in vivo, iv, 1 mg/kg): 40 L/kg
- clearance ([3]; in vivo, iv, 1 mg/kg): 83.3 mL/min/kg
- Cmax ([3]; intravenous injection 1 mg/kg): 104.1 ng/mL
- T1/2 ([3]; intravenous injection 1 mg/kg): 5.7 h
- AUC(0-t) ([3]; plasma, iv, 1 mg/kg): 194 ng·h/mL
- MRT last ([3]; plasma, iv, 1 mg/kg): 3.89 h

- IC50 (TRKA): 2.8 nM
- IC50 (TRKB): 3.2 nM
- IC50 (TRKC): 3.9 nM
- IC50 (TRKA-G595R): 0.75 nM
- IC50 (TRKA-G667C): 0.76 nM
- IC50 (TRKA-F589L): 0.44 nM
- IC50 (TRKC-G623R): 0.73 nM
- IC50 (TRKC-G696A): 1.3 nM
- CL ([2]; oral 5 mg/kg): 57.7 mL/min/kg
- Vz ([2]; oral 5 mg/kg): 19.23 L/kg
- AUC(0-t) ([2]; plasma, po, 5 mg/kg): 1460 ng·h/mL
- Cmax ([2]; plasma, po, 5 mg/kg): 283 ng/mL
- MRT last ([2]; plasma, po, 5 mg/kg): 4.27 h
- Tmax ([2]; plasma, po, 5 mg/kg): 2 h
- bioavailability ([2]; plasma, po, 5 mg/kg): 56.2%
- half-life ([2]; plasma, po, 5 mg/kg): 4 h
- AUC(0-t) ([3]; plasma, iv, 1 mg/kg): 518 ng·h/mL
- Cmax ([3]; plasma, iv, 1 mg/kg): 174 ng/mL
- MRT last ([3]; plasma, iv, 1 mg/kg): 4.2 h
- Vd ([3]; plasma, iv, 1 mg/kg): 12.7 L/kg
- clearance ([3]; plasma, iv, 1 mg/kg): 30.3 mL/min/kg
- half-life ([3]; plasma, iv, 1 mg/kg): 4.95 h
Structure (SMILES): C[C@@H](Nc1ccn2ncc(-c3cn[nH]c3)c2n1)c1cc(F)ccc1OCC(F)(F)F [Compound b8-30, (R)-N-(1-(5-fluoro-2-(2,2,2-trifluoroethoxy)phenyl)ethyl)-3-(1H-pyrazol-4-yl) pyrazolo [1,5-a] pyrimidin-5-amine]
- Partially regression (Human NSCLC H2228 [4]; 25 mg/kg BID D0-13 (50 mg/kg from D8)): 6/6
- Tumor growth inhibition value/ D14 (Human NSCLC H2228 [4]; 25 mg/kg BID D0-13 (dose increased from D8 to 50 mg/kg), read at D14): 127%
- Tumor growth inhibition value/ D14 (Human NSCLC H2228 [4]; 25 mg/kg BID D0-13 (dose increased from D8 to 50 mg/kg), read at D14, listed as compound b8-30): 127%
- tumor inhibition rate D7 (Human NSCLC H2228 [4]; 25 mg/kg BID, read at D7): 95%
- Partially regression (Human NSCLC H2228 [4]; 50 mg/kg QD D0-10 (100 mg/kg from D8)): 3/6
- Tumor growth inhibition value/ D14 (Human NSCLC H2228 [4]; 50 mg/kg QD D0-10 (dose raised from D8 to 100 mg/kg), read at D14): 110%
- Tumor growth inhibition value/ D14 (Human NSCLC H2228 [4]; 50 mg/kg QD D0-10 (dose raised from D8 to 100 mg/kg), read at D14, listed as compound b8-30): 110%
- tumor suppression D7 (Human NSCLC H2228 [4]; 50 mg/kg QD, read at D7): 96%
